Where “and” joins values, the source holds several entries; their conditions need not be identical. Identical values can stand only once.
Experiments:
[1] = Liver function assays in sera of HFD-fed mice; assay type: in vivo, C57BL/6J mice; settings: data not shown
Method: (§1) Animal studies were approved by Institutional Animal Care and Use Committee of McGuire Veterans Affairs Medical Center and were conducted in accordance with the Declaration of Helsinki, the Guide for the Care and Use of Laboratory Animals, and all applicable regulations. To examine the effect of 25HCDS on diet-induced lipid accumulation in sera and liver, 8-week-old female C57BL/6J mice (Charles River, Wilmington, Mass.) were fed high fat diet (HFD) (Harlan Teklad, Madison, Wis.) containing 42% kcal from fat, 43% kcal from carbohydrate, 15% kcal from protein and 0.2% cholesterol for 10 weeks. All mice were housed under identical conditions in an aseptic facility and given free access to water and food. At the end of each period, the mice were intraperitoneally injected with vehicle solution (ethanol/PBS; Vehicle), or 25HCDS (25 mg/kg) once every three days for 6 weeks and fasted for overnight; and blood samples were collected. Serum triglyceride, total cholesterol, high density lipoprotein-cholesterol, glucose, alkaline phosphatase (ALK), alanine aminotransferase (ALT), and aspartate aminotransferase (AST) were measured using standard enzymatic techniques in the clinical laboratory at McGuire Veterans Affairs Medical Center. Lipoprotein profiles in sera were analyzed by HPLC as described below.

PPARγ = PPARγ mRNA regulation by 25HC3S (comparison in discussion); settings: administration of 25HC3S, compared with 25HCDS
[2] = tested on: Hepatic mRNA Expression involved in lipid metabolism in the Mice Fed a HFD; experiment: Relative hepatic mRNA expression of lipid metabolism genes in HFD-fed mice (real-time RT-PCR); assay type: in vivo, C57BL/6J mice; settings: 25HCDS 25 mg/kg i.p. once every three days for 6 weeks, HFD vehicle = 1.0, mean ± SD, n = 7
Method: (§2) Total RNA was isolated with SV Total RNA Isolation Kit (Promega, Madison, Wis.), which included DNase treatment. Total RNA, 2 μg, was used for the first-strand cDNA synthesis as recommended by the manufacturer (Invitrogen, Carlsbad, Calif.). Real-time RT-PCR was performed using a suitable dye as indicator on ABI 7500 Fast Real-Time PCR System (Applied Biosystems, Foster City, Calif.). All primer/probe sets for real-time PCR were TaqMan gene expression assays (Applied Biosystems, Foster City, Calif.). Amplifications of β-actin and glyceraldehyde 3-phosphate dehydrogenase (GAPDH) were used as internal controls. Relative messenger RNA (mRNA) expression was quantified with the comparative cycle threshold (Ct) method and was expressed as 2^−ΔΔct. The sequences of suitable primers for amplification are described, for example, in Ren et al., 2007 (1).
as §1

[3] = tested on: Hepatic mRNA Expression involved in inflammatory responses in the Mice Fed a HFD; experiment: Relative hepatic mRNA expression of inflammatory response genes in HFD-fed mice (real-time RT-PCR); assay type: in vivo, C57BL/6J mice
Method: as §2, §1

HFD-fed mice = experiment: Quantification of hepatic lipids in mouse NAFLD model (HFD-fed mice); assay type: in vivo, C57BL/6J mice
Method: as §1
Liver tissues were homogenized, and lipids were extracted with a mixture of chloroform and methanol (2:1), and filtered. The extracts, 0.2 ml, were evaporated to dryness and dissolved in 100 μl of isopropanol containing 10% of TRITON™ X-100 (C14H22O(C2H4O)n), a nonionic surfactant) for cholesterol assay (Wako Chemicals USA, Richmond, Va.), the NEFA solution (0.5 g of EDTA-Na2, 2 g of TRITON™ X-100, 0.76 ml of IN NaOH, and 0.5 g of sodium azide/l, pH 6.5) for free fatty acid assay (Wako Chemicals USA, Richmond, Va.), or isopropanol only for triglyceride assay (Fisher Scientific, Pittsburgh, Pa.). All of the assays were performed according to the manufacturer's instructions, respectively. Each lipid concentration was normalized to liver weight.

[4] = Body mass, caloric intake, liver weight and toxicity during long-term treatment of HFD-fed mice; assay type: in vivo, C57BL/6J mice
Method: as §1
To study the effects of long-term treatment of 25HCDS on lipid homeostasis, 8-week-old C57BL/6J female mice were fed a HFD for 10 weeks, and then divided into two groups. One group was treated with 25HCDS and the other with vehicle by peritoneal injection once every three days for six weeks. During the treatment, the mice were fed a HFD, and body mass and caloric intakes were monitored. […] After 6 weeks of injections, the mice were fasted overnight, and sacrificed.

THP-1 macrophages = experiment: mRNA levels in THP-1 macrophages by real-time RT-PCR; assay type: cell-based, Human
Method: Human THP-1 monocytes and HepG2 cells were purchased from the American Type Culture Collection (ATCC, Manassas, Va.) and maintained according to the supplier's protocols. THP-1 monocytes were differentiated to macrophages by adding 100 nM of phorbol 12-myristate 13-acetate (PMA). When cells reached ˜90% confluence, 25HCDS in ethanol (the final concentration of ethanol in media was 0.1%) was added. The cells were harvested at the indicated times for protein, mRNA, and lipid analysis.
as §2

[5] = 25 mg/kg i.p. once every three days for 6 weeks, versus HFD vehicle
[6] = 25HCDS 25 mg/kg i.p. once every three days for 6 weeks, HFD vehicle = 1.0, mean ± SD, n = 7
[7] = HFD-fed mice, 25 mg/kg i.p. once every three days for 6 weeks, versus HFD vehicle, 25 mg/kg
[8] = in vivo studies, 25HCDS administration
[9] = HFD-fed mice during 6 weeks of treatment, versus vehicle, data not shown
[10] = concentration dependent and time dependent, FIG. 5A

With `C[C@H](CCCC(C)(C)O)[C@H]1CC[C@H]2[C@@H]3CC=C4C[C@@H](OS(=O)(=O)O)CC[C@]4(C)[C@H]3CC[C@]12C` [25HC3S, 5-Cholesten-3β, 25-diol 3-sulfate] the “alkaline phosphatase activity in sera” value [1] was “decreasing” and the “PPARγ mRNA” value (PPARγ) was “only slightly increases”.
For `C[C@H](CCCC(C)(C)OS(=O)(=O)O)[C@H]1CC[C@H]2[C@@H]3CC=C4C[C@@H](OS(=O)(=O)O)CC[C@]4(C)[C@H]3CC[C@]12C` [25HCDS, 5-cholesten-3β, 25-diol, disulfate], the “ACC1 relative hepatic mRNA expression” value [2] was 0.86 ± 0.18, the “CD36 relative hepatic mRNA expression” value [2] was 0.69 ± 0.29 and the “FAS relative hepatic mRNA expression” value [2] was 0.68 ± 0.17. The “GPAM relative hepatic mRNA expression” value [2] was 0.74 ± 0.18, the “HMGR relative hepatic mRNA expression” value [2] was 0.84 ± 0.07 and the “LDLR relative hepatic mRNA expression” value [2] was 0.62 ± 0.08. For the same compound, the “MTTP relative hepatic mRNA expression” value [2] was 0.94 ± 0.17, the “PLTP relative hepatic mRNA expression” value [2] was 0.68 ± 0.21 and the “SREBP-1c relative hepatic mRNA expression” value [2] was 0.64 ± 0.14. The “SREBP-2 relative hepatic mRNA expression” value [2] was 1.12 ± 0.25, the “increase of PGC-1α expression in the liver” value [3, 5] was 2 fold and the “suppression of IL1β expression in liver” value [3, 5] was 36%. The “suppression of TNFα expression in liver” value [3, 5] was 50%, the “IL1α relative hepatic mRNA expression” value [3, 6] was 1.02 ± 0.20 and the “IL1β relative hepatic mRNA expression” value [3, 6] was 0.64 ± 0.16. For the same compound, the “IkBα relative hepatic mRNA expression” value [3, 6] was 1.35 ± 0.27, the “PGC-1α relative hepatic mRNA expression” value [3, 6] was 2.11 ± 0.82 and the “PPARα (Peroxisome proliferator-activated receptor gamma) relative hepatic mRNA expression” value [3, 6] was 1.27 ± 0.52. The “TNFv (Tumor necrosis factor a) relative hepatic mRNA expression” value [3, 6] was 0.50 ± 0.21, the “decrease of total cholesterol in liver tissue” value (HFD-fed mice; HFD-fed mice, 25 mg/kg i.p. once every three days for 6 weeks, versus HFD vehicle) was 30% and the “decrease of free fatty acids in liver tissue” value (HFD-fed mice; [7]) was 20% and 25%. For the same compound, the “decrease of triglycerides in liver tissue” value (HFD-fed mice; [7]) was 18% and 20%, the “decrease of hepatic neutral lipids” value (HFD-fed mice; [8]) was 20-35% and the body mass [4, 9] was “No significant difference”. For the same compound, the caloric intakes [4, 9] was “No significant difference”, the liver weights ([4]; after 6 weeks of injections, data not shown) was “did not show significant differences” and the toxicity [4, 8] was “without exhibiting toxicity”. The “PPARγ mRNA levels” value (THP-1 macrophages; FIG. 5C, 5D) was “linearly increased”, the “expression of SREBP1/2” value (THP-1 macrophages; FIGS. 5A and 5B) was “decreases” and the IκBα expression (THP-1 macrophages; at an early stage and at low concentrations) was “coincidently increased”. For the same compound, the “ACC mRNA levels” value (THP-1 macrophages; [10]) was “decreases”, the “FAS mRNA levels” value (THP-1 macrophages; [10]) was “decreases” and the “HMG-CoA reductase mRNA levels” value (THP-1 macrophages; concentration dependent and time dependent, FIG. 5B) was “decreases”.

— patent US20160355544A1, “NOVEL CHOLESTEROL METABOLITE, 5-CHOLESTEN, 3BETA-25-DIOL, DISULFATE (25HCDS) FOR THERAPY OF METABOLIC DISORDERS, HYPERLIPIDEMIA, DIABETES, FATTY LIVERS DISEASES AND ATHEROSCLEROSIS” (priority 2012, published 2016)
